BindingDB's records for doi:10.1021/jm025550h (Abbott Laboratories, 2002)

Key:
[1] = Effective concentration in vitro against rabbit urethra Alpha-1 adrenergic receptor
[2] = Effective concentration in vitro against rabbit urethra Alpha-1A adrenergic receptor

Compound	EC50 [1]	EC50 [2]
COc1ccc(OC)c(C(O)CN)c1 (stereo not drawn)	7.1 µM	
CC(N)C(O)c1ccccc1 [(1R, 2S)-2-Amino-1-phenyl-propan-1-ol]	230 µM	
CCS(=O)(=O)Nc1cccc(Cc2cnc[nH]2)c1 [ABT-866]		600 nM
